Consider 4 molecules from patent publication US7514254B2, “Plant-derived alkaline alpha-galactosidase” (The State of Israel, Ministry of Agriculture & Rural …, priority 1998, dated 2009).

Series [1] deals with melon (Cucumis melo) fruit acid form alpha-galactosidase. Nature of the series: Substrate kinetics (Lineweaver-Burk) of acid alpha-galactosidase. It is filed as biochemical, muskmelon (Cucumis melo L. cv C-8). Conditions: for Km / Vmax: Lineweaver-Burk. How it is done:
For routine analysis and monitoring the activity in the purification steps, alpha-galactosidase was assayed as described by Smart and Pharr (“Characterization of alpha-galactosidase from cucumber leaves”, Plant Physiology, 66:731-734, 1980), using p-nitrophenyl alpha-galactoside (pNPG) as substrate. […] The reaction was terminated after 10 min by adding 1 ml of 5% (w/v) Na2CO3 and activity expressed as nmol nitrophenol per min as measured at 410 nm. […] The assay was started by adding 50 μl enzyme preparation at 35 C and terminated after 10 to 20 min by 2 min boiling. […] For the partial purification of the acid form of alpha-galactosidase the fractions active at pH 5.5 were pooled and concentrated by reverse dialysis against solid sucrose. […] The active fractions were then desalted by dialysis against buffer A for 12 hours with two changes of the buffer. This enzyme fraction was used for the characterization of the acidic form of alpha-galactosidase. […] The substrate specificity of the alpha-galactosidases was tested with pNPG, stachyose, raffinose, melibiose or guar gum (Sigma).

Series [2] concerns the target T1, melon (Cucumis melo) fruit alkaline alpha-galactosidase Form I (Cucumis melo, UniProt Q84NI7).
T1 sequence (Q84NI7 1-754): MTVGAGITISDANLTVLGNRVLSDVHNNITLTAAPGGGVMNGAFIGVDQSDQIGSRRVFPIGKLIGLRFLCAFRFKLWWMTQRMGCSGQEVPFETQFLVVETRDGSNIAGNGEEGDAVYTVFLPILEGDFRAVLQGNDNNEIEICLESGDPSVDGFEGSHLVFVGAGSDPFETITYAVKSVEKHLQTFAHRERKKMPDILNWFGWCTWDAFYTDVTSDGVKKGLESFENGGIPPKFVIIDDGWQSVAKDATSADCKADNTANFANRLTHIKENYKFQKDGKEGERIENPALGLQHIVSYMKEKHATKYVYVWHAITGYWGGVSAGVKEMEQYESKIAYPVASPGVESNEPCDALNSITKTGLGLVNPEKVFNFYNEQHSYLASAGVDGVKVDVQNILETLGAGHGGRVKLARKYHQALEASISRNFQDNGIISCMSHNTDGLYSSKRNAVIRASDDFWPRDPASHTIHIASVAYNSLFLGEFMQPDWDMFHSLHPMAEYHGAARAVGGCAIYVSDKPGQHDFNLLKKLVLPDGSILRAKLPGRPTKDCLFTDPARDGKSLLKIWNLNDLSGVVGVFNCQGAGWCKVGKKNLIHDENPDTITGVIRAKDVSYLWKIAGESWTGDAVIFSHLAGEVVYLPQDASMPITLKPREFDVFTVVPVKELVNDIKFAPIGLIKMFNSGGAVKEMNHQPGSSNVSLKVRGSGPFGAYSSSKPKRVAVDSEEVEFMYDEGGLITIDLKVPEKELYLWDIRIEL
Nature of the series: Substrate kinetics (Lineweaver-Burk) of alkaline alpha-galactosidase Form I. The note with it: for Vmax: Lineweaver-Burk. How it is done:
(§1) For routine analysis and monitoring the activity in the purification steps, alpha-galactosidase was assayed as described by Smart and Pharr (“Characterization of alpha-galactosidase from cucumber leaves”, Plant Physiology, 66:731-734, 1980), using p-nitrophenyl alpha-galactoside (pNPG) as substrate. Reaction was initiated by adding 50 μl enzyme aliquot to either 200 μl 100 mM pH 5.5 McIlvaine buffer or 100 mM pH 7.5 HEPES buffer, containing 5 mM pNPG at 35 C. The reaction was terminated after 10 min by adding 1 ml of 5% (w/v) Na2CO3 and activity expressed as nmol nitrophenol per min as measured at 410 nm. […] The assay was started by adding 50 μl enzyme preparation at 35 C and terminated after 10 to 20 min by 2 min boiling.
(§2) The fractions from the DEAE-Sepharose chromatography which were active at pH 7.5 were pooled and dialyzed against buffer A for 12 h prior to loading onto an HPLC ion exchange chromatography column (Mono-Q HR 5/5, Pharmacia, Uppsala, Sweden), previously equilibrated with buffer A. Bound proteins were eluted with a linear gradient of 0.1 to 0.45 M NaCl and the active fractions were detected using pNPG as substrate at pH 7.5 as described above. […] For the further purification of Form II the active fractions of the peak II were chromatographed on hydrophobic interaction chromatography. The fractions were pooled, brought to 1 M (NH4)2SO4 and loaded on to a hydrophobic interaction column (phenyl-Sepharose CL-4B, 0.5×12 cm, Pharmacia, Uppsala, Sweden) previously equilibrated with buffer A containing 1 M (NH4)2SO4. The protein was eluted with a reverse stepwise gradient from 1 to 0 M (NH4)2SO4 with 50 mM intervals in buffer A. Fractions containing the activity peak were collected and dialyzed for 12 h against buffer A and the dialysate was concentrated by reverse dialysis against solid sucrose. The enzyme, partially purified by hydrophobic interaction chromatography, was used for the characterization of Form II. The active fractions from the hydrophobic interaction column were further purified. Active fractions were separated electrophoretically using a Mini Prep Cell (Bio-Rad Laboratories, Hercules, Calif.) for discontinuous native-PAGE with 7% polyacrylamide, according to manufacturer's instructions. Fractions (0.25 ml/fraction) were assayed at pH 7.5 with pNPG as substrate for the activity. The active fractions were pooled, concentrated by Vivaspin Concentrator (Vivascience LTD, Lincoln, England), and run in a 8% SDS-PAGE. Proteins in the SDS-PAGE were identified using Coomassie Blue staining.
Therefore, the active fractions from the Mono-Q column were used for the characterization of Form I. In addition, the Form I enzyme was further purified, as described in the following section.

Series [3] deals with T2, melon (Cucumis melo) fruit alkaline alpha-galactosidase Form II (Cucumis melo, UniProt Q84NI6).
T2 construct: native 102 kDa, denatured 92 kDa; assayed at pH 7.5
T2 sequence (Q84NI6 1-772): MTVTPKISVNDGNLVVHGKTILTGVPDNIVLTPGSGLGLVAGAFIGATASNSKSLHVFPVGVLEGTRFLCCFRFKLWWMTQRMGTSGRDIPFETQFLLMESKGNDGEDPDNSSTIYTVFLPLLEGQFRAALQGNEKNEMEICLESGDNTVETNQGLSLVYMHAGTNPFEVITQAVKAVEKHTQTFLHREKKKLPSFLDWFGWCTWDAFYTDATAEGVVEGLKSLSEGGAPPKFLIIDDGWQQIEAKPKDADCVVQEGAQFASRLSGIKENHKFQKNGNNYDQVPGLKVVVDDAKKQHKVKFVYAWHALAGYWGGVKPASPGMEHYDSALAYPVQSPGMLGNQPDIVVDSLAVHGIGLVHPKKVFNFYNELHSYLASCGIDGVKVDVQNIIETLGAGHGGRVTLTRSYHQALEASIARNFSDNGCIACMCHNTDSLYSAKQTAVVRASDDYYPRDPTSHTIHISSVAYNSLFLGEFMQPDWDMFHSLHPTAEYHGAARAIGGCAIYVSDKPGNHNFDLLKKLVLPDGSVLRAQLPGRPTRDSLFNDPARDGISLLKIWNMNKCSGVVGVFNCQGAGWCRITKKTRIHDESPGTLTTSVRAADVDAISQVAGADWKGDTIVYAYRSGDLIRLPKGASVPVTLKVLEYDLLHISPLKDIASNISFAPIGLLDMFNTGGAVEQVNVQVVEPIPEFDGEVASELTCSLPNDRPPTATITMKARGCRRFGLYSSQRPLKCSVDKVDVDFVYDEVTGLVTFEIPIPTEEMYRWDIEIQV
Kind of series: Substrate kinetics (Lineweaver-Burk) of alkaline alpha-galactosidase Form II. The series is classed as biochemical, muskmelon (Cucumis melo L. cv C-8). Conditions: for Vmax: Lineweaver-Burk. How it is done: as §1, §2

In series [4] the test system is Escherichia coli K12 alpha-galactosidase. Conditions: Schmid and Schmitt 1976; cited from earlier work.
The test system of series [5] is Pseudomonas fluorescens H-601 alpha-galactosidase. Conditions: Hashimoto et al. 1991; relative Km values; cited from earlier work.
Substrate in series [6]: O=[N+]([O-])c1ccc(O[C@H]2O[C@H](CO)[C@H](O)[C@H](O)[C@H]2O)cc1
Nature of the series: purified protein, by the assay type. Conditions: other: alkaline Form I; Lineweaver-Burk; 35.0 °C.

Substrate in series [7]: OC[C@H]1O[C@H](OC[C@H]2OC(O)[C@H](O)[C@@H](O)[C@@H]2O)[C@H](O)[C@@H](O)[C@H]1O
Kind of series: purified protein, by the assay type. Conditions: other: alkaline Form I; Lineweaver-Burk; 35.0 °C.

Substrate in series [8]: OC[C@H]1O[C@H](OC[C@H]2O[C@H](OC[C@H]3O[C@H](O[C@]4(CO)O[C@H](CO)[C@@H](O)[C@@H]4O)[C@H](O)[C@@H](O)[C@@H]3O)[C@H](O)[C@@H](O)[C@H]2O)[C@H](O)[C@@H](O)[C@H]1O
Kind of series: purified protein, by the assay type. Conditions: other: alkaline Form I; Lineweaver-Burk; 35.0 °C.

Substrate in series [9]: OC[C@H]1O[C@H](OC[C@H]2O[C@H](O[C@]3(CO)O[C@H](CO)[C@@H](O)[C@@H]3O)[C@H](O)[C@@H](O)[C@@H]2O)[C@H](O)[C@@H](O)[C@H]1O
Kind of series: purified protein, by the assay type. The note with it: other: alkaline Form I; Lineweaver-Burk; 35.0 °C.

For series [10] the following is noted: raffinose versus melibiose; literature; cited from earlier work.

As for `OC[C@H]1O[C@H](OC[C@H]2OC(O)[C@H](O)[C@@H](O)[C@@H]2O)[C@H](O)[C@@H](O)[C@H]1O` (stereo partly drawn) [Melibiose, 6-O-alpha-D-galactopyranosyl-D-glucose], the Vmax/Km ratio in series [1] was found to be 0.27. The Km was 700 µM in series [1], 3200 µM in series [4] and 3200 µM in [5]. The Vmax in series [1] is on record as 0.19 μmol mg^−1 protein min^−1; in series [2], 0.3 μmol mg^−1 protein min^−1; in [3], 0.23 μmol mg^−1 protein min^−1.

With `O=[N+]([O-])c1ccc(O[C@H]2O[C@H](CO)[C@H](O)[C@H](O)[C@H]2O)cc1` [pNPG, p-nitrophenyl alpha-galactopyranoside], in series [1], the Vmax/Km ratio is 5.00, the Km turned out to be 300 µM and the Vmax was 1.5 μmol mg^−1 protein min^−1. The “pNPG concentration above which enzyme is inhibited (substrate inhibition)” value in series [1] (pNPG as substrate) is recorded as “above 5 mM”. Further, in series [2], the Vmax/Km ratio amounted to 1.17 and the Vmax was 1.4 μmol mg^−1 protein min^−1. For the same molecule, in series [3], the Vmax/Km ratio was determined as 2.63 and the Vmax worked out at 7.9 μmol mg^−1 protein min^−1.

B1: melon (Cucumis melo) fruit alkaline alpha-galactosidase Form I (Cucumis melo) (protein)
chain: T1 sequence (Q84NI7 1-754)
Regarding B1, the Km in series [6] is 1200 µM; in series [7], 20000 µM; in [8], 4000 µM; in series [9] it was 1500 µM. The Vmax is 0.3 µmol/min in series [7], 0.24 µmol/min in series [8] and 0.56 µmol/min in series [9].

B2: alpha-galactosidase from Escherichia coli K12: alpha-galactosidase of Schmid and Schmitt, tetrameric protein (protein, UniProt P06720 1-451, looked up)
Alpha-galactosidase: MMSAPKITFIGAGSTIFVKNILGDVFHREALKTAHIALMDIDPTRLEESHIVVRKLMDSAGASGKITCHTQQKEALEDADFVVVAFQIGGYEPCTVTDFEVCKRHGLEQTIADTLGPGGIMRALRTIPHLWQICEDMTEVCPDATMLNYVNPMAMNTWAMYARYPHIKQVGLCHSVQGTAEELARDLNIDPATLRYRCAGINHMAFYLELERKTADGSYVNLYPELLAAYEAGQAPKPNIHGNTRCQNIVRYEMFKKLGYFVTESSEHFAEYTPWFIKPGREDLIERYKVPLDEYPKRCVEQLANWHKELEEYKKASRIDIKPSREYASTIMNAIWTGEPSVIYGNVRNDGLIDNLPQGCCVEVACLVDANGIQPTKVGTLPSHLAALMQTNINVQTLLTEAILTENRDRVYHAAMMDPHTAAVLGIDEIYALVDDLIAAHGDWLPGWLHR
Turning to B2, the “activity with raffinose as compared to melibiose” value in series [10] is given as “about 4%”.

For orientation: Km means the concentration of substrate that gives half-maximal velocity.
